# Data reported in US20230277612A1, “SAPONIN DERIVATIVES FOR USE IN MEDICINE” (priority 2020, published 2023).
# Several values for one entry are separate records, joined by “and”; a condition that tells them apart may be missing. Equal values may be shown once. Read-outs that look alike come from different tables or passages of the source.
# Assays:
# [1] = system: EGFR expressing cells (A431); format: cell-based
# [2] = system: HeLa cells; test: cells; format: cell-based
# Method: (§1) (FIGS. 66a and 66B). Next toxicity was determined, for this the modified saponins were titrated on HeLa and A431 cells. […] Next toxicity was determined, for this the modified saponins were titrated on HeLa and A431 cells.
# [3] = system: EGFR expressing cells (HeLa); format: cell-based
# [4] = system: human red blood cells; test: cells; format: cell-based
# Method: Red blood cells (RBCs) were isolated from a buffy coat using a Ficoll gradient. The obtained RBC pellet (˜4-5 ml) was washed 2× with 50 ml DPBS (without Ca^2+/Mg^2+, PAN-Biotech GmbH). Cells were pelleted by centrifugation for 10 min, 800×g at RT. RBC were counted and resuspended at 500.000.000 c/ml in DPBS (without Ca^2+/Mg^2+), based on total cell count.
# (§2) Saponin dilutions were prepared in DPBS (with Ca^2+/Mg^2+, PAN-Biotech GmbH), at 1.11× final strength. For positive lysis control a 0.02% Triton-X100 solution was prepared in DPBS^+/+. Of all compound solutions 135 μl was dispensed/well in a 96 well V-bottom plate. To this 15 μl RBC suspension was added and mixed shortly (10 sec-600 rpm). The plate was incubated 30 min at RT, with gentle agitation. Afterwards the plate was spun for 10 min at 800×g to pellet the RBC and 100-120 μl supernatant was transferred to a standard 96 wp (96 well-plate).
# as §2, with “DPBS+/+.” for “DPBS^+/+.”
# [5] = system: A431 cells; test: cells; format: cell-based
# Method: as §1
# [6] = Critical micellar concentration (CMC) by ANS fluorescence; format: physicochemical; conditions: for CMC: Table A7, determined in PBS
# Method: The critical micellar concentration (CMC) of saponins derived from Saponaria officinalis (SO) (Table A7) and derived from Quillaja saponaria (QS) (Table A8, and Table A9) was determined by the method of DeVendittis et al. (A fluorimetric method for the estimation of the critical micelle concentration of surfactants, Analytical Biochemistry, Volume 115, Issue 2, August 1981, Pages 278-286) as follows:
# (§3) The emission spectrum of 8-Anilinonaphthalene-1-sulfonic acid (ANS) in either purified water (MQ) or PBS (Dulbecco's PBS+/+) was determined at dry weight concentrations of saponins ranging from 1 to 1400 pM to cover the range below and above the CMC. Above the CMC, the fluorescence yield of ANS increases and the wavelength of maximum emission decreases due to portioning of the fluorescent dye into micelles. Fluorescence yields were recorded on a Fluoroskan Ascent FL (Thermo Scientific) at an excitation wavelength of 355 nm, and an emission wavelength of 460 nm. 6 μg at a concentration of 75.86 pM of ANS were used per sample and measurement.
# The critical micellar concentration (CMC) of saponins was determined by the method of DeVendittis et al. (A fluorimetric method for the estimation of the critical micelle concentration of surfactants, Analytical Biochemistry, Volume 115, Issue 2, August 1981, Pages 278-286) as follows:
# as §3, with “μM” for “pM”
# [7] = A431, + 5 pM EGFdianthin, read-out: IC50 endosomal escape enhancing activity
# [8] = Table A12, read-out: IC50 nM (Toxicity)
# [9] = HeLa, + 5 pM EGFdianthin, read-out: IC50 endosomal escape enhancing activity
# [10] = read-out: IC50 hemolytic activity
# [11] = saponin alone, read-out: IC50 toxicity
# [12] = Table A5, HeLa cells, saponin titrated + 5 pM EGFdianthin, read-out: IC50 nM (Activity)
# [13] = Table A5, saponin alone, read-out: IC50 nM (Toxicity)
# [14] = Table A6, saponin alone, read-out: IC50 nM (Toxicity)
# [15] = Table A5, read-out: IC50 nM (hemolysis)
# [16] = Table A6, read-out: IC50 nM (hemolysis)
# [17] = Homo sapiens, HeLa, Table A5, saponin alone, read-out: IC50 nM (Toxicity)
# [18] = Homo sapiens, HeLa, saponin alone, read-out: IC50 toxicity
molecule,measurement,setting,value
CC[C@H](C)[C@H](C[C@H](O)CC(=O)OC1C(C)OC(OC(=O)[C@]23CCC(C)(C)CC2C2=CCC4[C@@]5(C)CC[C@H](OC6OC(C(=O)O)C(O)C(OC7OCC(O)C(O)C7O)C6OC6OC(CO)C(O)C(O)C6O)[C@@](C)(/C=N/NC(=O)CCCCCN6C(=O)C=CC6=O)C5CC[C@@]4(C)[C@]2(C)C[C@H]3O)C(OC2OC(C)C(OC3OCC(O)C(OC4OCC(O)(CO)C4O)C3O)C(O)C2O)C1O)OC(=O)C[C@@H](O)C[C@H](OC1OC(CO)C(O)C1O)[C@@H](C)CC (some centres unmarked) [QS21-Ald-EMCH],IC50,[1]; [7],900 nM
same,IC50,[2]; [8],> 30000 nM
same,IC50,[3]; [9],900 nM
"CC(=O)OC1C(C)OC(OC2C(C)OC(OC(=O)[C@]34CCC(C)(C)CC3C3=CCC5[C@@]6(C)CC[C@H](OC7OC(C(=O)O)C(O)C(OC8OCC(O)C(O)C8O)C7OC7OC(CO)C(O)C(O)C7O)[C@@](C)(C=O)C6CC[C@@]5(C)[C@]3(C)C[C@H]4O)C(OC3OC(C)C(OC4OCC(O)C(OC5OCC(O)C(O)C5O)C4O)C(O)C3O)C2O)C(O)C1OC1OCC(O)C(O)C1O (some centres unmarked) [SO1832, reference compound]",IC50,[4]; [10],~10000 nM
CC1OC(OC2C(C)OC(OC(=O)[C@]34CCC(C)(C)CC3C3=CCC5[C@@]6(C)CC[C@H](OC7OC(C(=O)O)C(O)C(OC8OCC(O)C(O)C8O)C7OC7OC(CO)C(O)C(O)C7O)[C@@](C)(C=O)C6CC[C@@]5(C)[C@]3(C)C[C@H]4O)C(OC3OC(C)C(OC4OCC(O)C(OC5OC(CO)C(O)C(O)C5O)C4O)C(O)C3O)C2O)C(O)C(OC2OCC(O)C(O)C2O)C1O (some centres unmarked) [SO1861-Ac—OH],IC50,[1]; [7],800 nM
same,IC50,[2]; [11],10000 nM
same,IC50,[5]; [11],2000 nM
same,CMC,[6],350 ± 35 µM
same,IC50,[3]; [9],1000 nM
QS21 [reference compound],IC50,[1]; [7],90 nM
same,IC50,[2]; [11],6000 nM and 10000 nM
same,IC50,[3]; [9],200 nM
same,IC50,[3]; [12],200 nM
same,IC50,"[3]; Table A12, HeLa cells, + 5 pM EGFdianthin, read-out: IC50 nM (Activity)",200 nM
CC(=O)OC1C(C)OC(OC2C(C)OC(OC(=O)C34CCC(C)(C)CC3C3=CCC5C6(C)CCC(OC7OC(C(=O)NC(C)(CO)CO)C(O)C(OC8OCC(O)C(O)C8O)C7OC7OC(CO)C(O)C(O)C7O)C(C)(C=NNC(=O)CCCCCN7C(=O)C=CC7=O)C6CCC5(C)C3(C)CC4O)C(OC3OC(C)C(OC4OCC(O)C(OC5OC(CO)C(O)C(O)C5O)C4O)C(O)C3O)C2O)C(O)C1OC1OCC(O)C(O)C1O (centres unmarked) [SO1861-(Ald-EMCH)-(Glu-AMPD)],IC50,[2]; [13],> 100000 nM
same,IC50,[5]; [14],> 100000 nM
same,CMC,[6],>30 µM
same,IC50,[4]; [15],> 1e+06 nM
same,IC50,[4]; [16],> 1e+06 nM
CC(=O)OC1C(C)OC(OC2C(C)OC(OC(=O)C34CCC(C)(C)CC3C3=CCC5C6(C)CCC(OC7OC(C(=O)O)C(O)C(OC8OCC(O)C(O)C8O)C7OC7OC(CO)C(O)C(O)C7O)C(C)(C=NNC(=O)CCCCCN7C(=O)C=CC7=O)C6CCC5(C)C3(C)CC4O)C(OC3OC(C)C(OC4OCC(O)C(OC5OC(CO)C(O)C(O)C5O)C4O)C(O)C3O)C2O)C(O)C1OC1OCC(O)C(O)C1O (centres unmarked) [Molecule 2],CMC compared to corresponding underivatised saponin,[6],increased CMC
CC1OC(OC2C(C)OC(OC(=O)[C@]34CCC(C)(C)CC3C3=CCC5[C@@]6(C)CC[C@H](OC7OC(C(=O)O)C(O)C(OC8OCC(O)C(O)C8O)C7OC7OC(CO)C(O)C(O)C7O)[C@@](C)(CO)C6CC[C@@]5(C)[C@]3(C)C[C@H]4O)C(OC3OC(C)C(OC4OCC(O)C(OC5OC(CO)C(O)C(O)C5O)C4O)C(O)C3O)C2O)C(O)C(OC2OCC(O)C(O)C2O)C1O (some centres unmarked) [SO1861-(Ald-OH)-(Ac—OH)],IC50,[2]; [13],> 100000 nM
same,IC50,[5]; [14],> 100000 nM
same,CMC,[6],>280 µM
same,IC50,[4]; [15],200000 nM
same,IC50,[4]; [16],200000 nM
same,IC50,[4]; [10],200000 nM
CC(=O)OC1C(C)OC(OC2C(C)OC(OC(=O)[C@]34CCC(C)(C)CC3C3=CCC5[C@@]6(C)CC[C@H](OC7OC(C(=O)O)C(O)C(OC8OCC(O)C(O)C8O)C7OC7OC(CO)C(O)C(O)C7O)[C@@](C)(/C=N/NC(=O)CCCCCN7C(=O)C[C@H](SCCO)C7=O)C6CC[C@@]5(C)[C@]3(C)C[C@H]4O)C(OC3OC(C)C(OC4OCC(O)C(OC5OC(CO)C(O)C(O)C5O)C4O)C(O)C3O)C2O)C(O)C1OC1OCC(O)C(O)C1O (some centres unmarked) [SO1861-Ald-EMCH-blocked],IC50,[2]; [17],> 100000 nM
same,IC50,[2]; [18],> 100000 nM
same,CMC,[6],50 ± 5 µM
same,IC50,"[4]; Homo sapiens, Erythrocyte, Table A5, read-out: IC50 nM (hemolysis)",300000 nM
same,IC50,"[4]; Homo sapiens, Erythrocyte, Table A6, read-out: IC50 nM (hemolysis)",300000 nM
same,IC50,"[4]; Homo sapiens, Erythrocyte, read-out: IC50 hemolytic activity",300000 nM
Aescin [reference compound],IC50,[2]; [8],> 30000 nM
same,IC50,[5]; [11],> 30000 nM
same,IC50,[4]; [10],10000 nM
CC(=O)OC1C(C)OC(OC2C(C)OC(OC(=O)[C@]34CCC(C)(C)CC3C3=CCC5[C@@]6(C)CC[C@H](OC7OC(C(=O)NCCN8C(=O)C=CC8=O)C(O)C(OC8OCC(O)C(O)C8O)C7OC7OC(CO)C(O)C(O)C7O)[C@@](C)(C=O)C6CC[C@@]5(C)[C@]3(C)C[C@H]4O)C(OC3OC(C)C(OC4OCC(O)C(OC5OC(CO)C(O)C(O)C5O)C4O)C(O)C3O)C2O)C(O)C1OC1OCC(O)C(O)C1O (some centres unmarked) [SO1861-Glu-AEM],IC50,[2]; [17],> 100000 nM
same,IC50,[2]; [18],> 100000 nM
same,IC50,"[5]; Homo sapiens, A-431, Table A6, saponin alone, read-out: IC50 nM (Toxicity)",> 100000 nM
same,IC50,"[5]; Homo sapiens, A-431, text, saponin alone, read-out: IC50 toxicity",> 100000 nM
same,CMC,[6],45 ± 5 µM
CC1OC(OC2C(C)OC(OC(=O)C34CCC(C)(C)CC3C3=CCC5C6(C)CCC(OC7OC(C(=O)NC(C)(CO)CO)C(O)C(OC8OCC(O)C(O)C8O)C7OC7OC(CO)C(O)C(O)C7O)C(C)(C=NNC(=O)CCCCCN7C(=O)C=CC7=O)C6CCC5(C)C3(C)CC4O)C(OC3OC(C)C(OC4OCC(O)C(OC5OC(CO)C(O)C(O)C5O)C4O)C(O)C3O)C2O)C(O)C(OC2OCC(O)C(O)C2O)C1O (centres unmarked) [SO1861-(Ald-EMCH)-(Ac—OH)-(Glu-AMPD)],IC50,"[1]; Table A6, A431 cells, saponin titrated + 5 pM EGFdianthin, read-out: IC50 nM (Activity)",> 20000 nM
same,IC50,[2]; [13],> 100000 nM
same,IC50,[5]; [14],> 100000 nM
same,IC50,[3]; [12],> 20000 nM
same,IC50,[4]; [15],> 1e+06 nM
same,IC50,[4]; [16],> 1e+06 nM
CC[C@H](C)[C@H](C[C@H](O)CC(=O)OC1C(C)OC(OC(=O)[C@]23CCC(C)(C)CC2C2=CCC4[C@@]5(C)CC[C@H](OC6OC(C(=O)NC(C)(CO)CO)C(O)C(OC7OCC(O)C(O)C7O)C6OC6OC(CO)C(O)C(O)C6O)[C@@](C)(/C=N/NC(=O)CCCCCN6C(=O)C=CC6=O)C5CC[C@@]4(C)[C@]2(C)C[C@H]3O)C(OC2OC(C)C(OC3OCC(O)C(OC4OCC(O)(CO)C4O)C3O)C(O)C2O)C1O)OC(=O)C[C@@H](O)C[C@H](OC1OC(CO)C(O)C1O)[C@@H](C)CC (some centres unmarked) [QS21-(Ald-EMCH)-(Glu-AMPD)],IC50,[2]; [8],> 30000 nM
same,IC50,"[4]; Table A12, read-out: IC50 nM (hemolysis)",> 300000 nM
same,IC50,[4]; [10],> 300000 nM
CC(=O)OC1C(C)OC(OC2C(C)OC(OC(=O)[C@]34CCC(C)(C)CC3C3=CCC5[C@@]6(C)CC[C@H](OC7OC(C(=O)NC(C)(CO)CO)C(O)C(OC8OCC(O)C(O)C8O)C7OC7OC(CO)C(O)C(O)C7O)[C@@](C)(C=O)C6CC[C@@]5(C)[C@]3(C)C[C@H]4O)C(OC3OC(C)C(OC4OCC(O)C(OC5OC(CO)C(O)C(O)C5O)C4O)C(O)C3O)C2O)C(O)C1OC1OC(C)C(O)C(O)C1O (some centres unmarked) [SO1861-Glu-AMPD],CMC,[6],50 ± 5 µM
